Test results taken from US11034725B2, “Compositions and methods for treating cardiovascular disease” (Genentech, Inc., priority 2016, dated 2021).
Read-outs that look alike come from different tables or passages of the source. Bridge positions count the residues as written; N and C are the ends. Square brackets hold non-standard residues; d marks the D form. Peptide text beside a SMILES is read from it. hArg = N=C(N)NCCCC[C@H](N)C(=O)O

How the values were obtained:
His-EGF(A)-Fc = His-EGF(A)-Fc TR-FRET counterscreen
PCSK9 [1] = molecular target: T1, PCSK9 (Homo sapiens, UniProt Q8NBP7); experiment: PCSK9/LDLR-Fc TR-FRET assay (LDLR assay); type: binding; details: Table 11, LDLR-Fc, average ±S.D. of three experiments
Protocol: In black 1536-well assay plates (MaKO, Aurora® Microplates, Whitefish, Mont.), 40 nL of peptide in DMSO were preincubated with 2 μL His-tagged PCSK9 plus anti-His-allophycocyanin in assay buffer (50 mM Tris-HCl, pH 7.5, 150 mM NaCl, 2 mM CaCl2, 0.01% Tween®-20, 0.1% bovine gamma globulins, and protease inhibitor cocktail) for 30 min. Then 2 μL of Fc-tagged ligand and anti-Fc-europium in assay buffer were added and allowed to incubate for 2 h. The PCSK9 and ligand conditions for each assay are as follows: 10 nM C-terminal (His)8-tagged PCSK9 (“(His)8” disclosed as SEQ ID NO: 304) and 12 nM EGF(A)-Fc for the EGF(A) assay, 10 nM C-terminal (His)8-tagged PCSK9 (“(His)8” disclosed as SEQ ID NO: 304) and 2.5 nM LDLR-Fc for the LDLR assay, 1.25 nM C-terminal (His)8-tagged PCSK9Δhelix (“(His)8” disclosed as SEQ ID NO: 304) and 0.75 nM Ab20 for the Ab20 assay, and 2 nM His-EGF(A)-Fc alone for the counterscreen. In all assays, anti-His-allophycocyanin and anti-Fc-europium were used at 20 nM and 2 nM, respectively. Fluorescence was measured with excitation at 340 nm and emission at 671 nm and 618 nm. The TR-FRET ratio was calculated as fluorescence at 671 nm/fluorescence at 618 nm. The ratios were normalized to controls and plotted against peptide concentration to determine IC50 values (Screener Analyzer, Genedata, Basel, CH). The peptides were evaluated in three separate experiments per assay with 10-point titrations and n=2 per concentration. The values presented are the average ±S.D. of three independent experiments.

PCSK9 [2] = molecular target: T1, PCSK9; experiment: PCSK9/EGF(A) TR-FRET binding assay
PCSK9Δhelix [3] = molecular target: T2, PCSK9Δhelix (Homo sapiens, UniProt Q8NBP7); experiment: SPR affinity measurements of peptide binding (Example 8)
T2 construct: Human PCSK9 construct M1-Q692 with an engineered TEV site (residue deletion Y166, R167); made in house; host or cells: CHO
Protocol: A Biacore™ T100 or Biacore™ 8K was adjusted to 20° C. The system was primed into assay buffer which consisted of 25 mM HEPES, pH 7.5, 0.15 M NaCl, 0.005% (v/v) Tween® 20, 0.2 mM tris(2-carboxyethyl)phosphine and optionally contained 0.1% (w/v) carboxymethylated dextran (average MW 10 kDa) and 0.2% (w/v) PEG (average MW 3450 Da) in order to reduce potential non-specific binding. Peptides were assayed by capturing fresh PCSK9 or PCSK9Δhelix after each binding regeneration cycle by exploiting a histidine tag and an NTA-sensor chip. The surface was charged with (His)8-tagged PCSK9 (approximately 800 RU captured). […] Compound 19 and Compound 20 were assayed in six serial two-fold dilutions from 100 nM to 3.1 nM. All peptides were analyzed in duplicate by serial injection (50 μL/min for 1 min) of peptide dilution from low to high concentration. The surface was then stripped of target by injecting 0.5 M EDTA, pH 8.0. This sequence was repeated for each peptide binding cycle and blank control cycles.
All SPR data was recorded in duplicate for five, or more serial dilutions, except for the two fusion peptides, which produced extremely low fitting error. Multicycle data (i.e. separate curves for each concentration) and single cycle data (i.e. single curve with serial injection of each concentration) were double referenced and fitted to an interaction model using BIAevaluation software. Peptide binding to PCSK9 produced deviations from a simple 1:1 binding interaction model that required application of a two-state model for determination of Kd while interactions with PCSK9Δhelix conformed well to simple 1:1 binding. Kinetic curvature was poorly defined for rapidly dissociating peptides and in these cases Kd was estimated from a steady-state dose response plot. Kd values were reported with associated standard error, a measure of confidence in that parameter value.

PCSK9Δhelix [4] = molecular target: T2, PCSK9Δhelix; experiment: PCSK9Δhelix/Ab20 TR-FRET binding assay
PCSK9 [5] = molecular target: T1, PCSK9; experiment: Cell surface LDLR assay with HepG2 cells; type: cell-based; details: HepG2 cells, 15 μg/mL PCSK9, 4 h, FACS
Protocol: HepG2 cells (ATCC; Manassas, Va.) were seeded into 48 well plates (Corning; Corning, N.Y.) at 1×10^5 cells per well in high glucose medium (DMEM, Gibco; Carlsbad, Calif.) containing 2 mM glutamine (Sigma), penicillin/streptomycin (Gibco) and 10% FBS (Sigma; St. Louis, Mo.) and incubated overnight. Then the medium was changed to DMEM containing 10% lipoprotein deficient serum (LPDS, Sigma). After 24 h, 15 μg/mL PCSK9 was incubated with peptides or Fab33 for 30 min, added to the cells and incubated at 37° C. for 4 h. Cells were rinsed with PBS and detached using Cell Dissociation Buffer in PBS (Gibco). After centrifugation, the resuspended cells were incubated with 1:20 anti LDLR antibody (Progen Biotechnik; Heidelberg, Germany) on ice for 10 min. The samples were then washed with PBS and incubated with 1:200 diluted goat anti mouse IgG (H+L) Alexa Fluor 488 (Invitrogen; Carlsbad, Calif.) on ice for 5 min. After two PBS washes, cells were re suspended in PBS containing 2.5 μg/mL of propidium iodide and analyzed on a dual laser flow cytometer (FACScan, Becton Dickinson; Franklin Lakes, N.J.). Relative fluorescence units (RFUs) were used to quantify LDLR expression levels on the HepG2 cell surface. Cell surface LDLR levels were expressed as percent of LDLR levels measured in the absence of PCSK9 (=control).
The effect of Compound 229 on PCSK9-mediated LDL receptor degradation was measured in a HepG2 cell assay as previously described (Zhang et al., J Biol Chem. 2014 Jan. 10; 289(2):942-55). Peptides at various concentrations were preincubated with 15 μg/mL PCSK9 in the presence of 0.5% DMSO for 30 min prior to the addition to cells. After a 4 h incubation, the cells were processed for measurements of LDL receptor surface levels by flow cytometry as described (Zhang et al., J Biol Chem. 2014 Jan. 10; 289(2):942-55) (FIG. 37).

PCSK9 [6] = molecular target: T1, PCSK9; experiment: Phage competition ELISA; type: binding
Protocol: The sequences of selected clones were fused to the N-terminus of M13 major coat protein (p8) using Kunkel mutagenesis method (Kunkel et al., Methods Enzymol 154, 367-82). The resulting construct was transformed to E. Coli. XL1 blue, single colony was grown in 1 mL 2YT supplemented with 50 μg/mL carbenicillin, 10 μg/mL Tetracycline and M13 KO7 helper phage at 37° C. for 2 h, Kanamycin was added to final concentration of 25 μg/mL, growth was continued at 37° C. for 6 h. The culture was transferred to 30 mL 2YT supplemented with 50 μg/mL carbenicillin and 25 μg/mL kanamycin and grown at 37° C. overnight. The next day, the phage was harvested and purified using the standard protocol (Tonikian et al. Nat Protoc. 2007; 2(6):1368-86). The serially diluted phage solution was applied to the biotinylated PCSK9 and biotinylated PCSK9Δhelix that had been immobilized for 15 min on a 384-well MaxiSorp ImmunoPlate previously coated with 5 μg/mL NeutrAvidin and blocked with Block buffer. The plate was incubated at 4° C. for 1 h, washed 10 times with PT buffer (PBS, 0.05% Tween® 20). The bound phage was detected with anti-M13-HRP and the ELISA signal was read at OD450 nm. The background was ELISA signal that the phage directly bound to NeutrAvidin-coated plate. The data was plotted and the curve fitted with KaleidaGraph. Sub-saturating phage concentration that gave 80% of maximum binding signal was determined by the binding curve.
IC50 measurements were performed by mixing a fixed sub-saturating concentration of peptide-displaying phage with a serial dilution of synthetic peptides in PBT buffer. The mixture was added to plates coated with PCSK9 and PCSK9Δhelix and incubated for 1 h at room temperature. The plates were then washed 10 times with PBT buffer and the bound phage was detected by anti-M13-HRP. The data was plotted, curve fitted and IC50 derived by use of KaleidaGraph. All measurements were repeated 3 times independently.

[7] = molecular target: T3, PCSK9-R167A:R215A:R218A (PCSK9-AAA) (Homo sapiens, UniProt Q8NBP7, R167A/R215A/R218A); experiment: FXIa cleavage assay of the P′ helix of PCSK9-AAA; type: biochemical; details: immunoblot with anti-N-terminal peptide antibody
T3 construct: made in house; host or cells: CHO (transient)
Protocol: The PCSK9-AAA mutant (2.6 μM) was incubated with 50 nM FXIa (Haematologic Technologies) in Tris buffer (50 mM Tris, 150 mM NaCl, 4 mM CaCl2, pH 8.0) at room temperature for the indicated time periods. […] After SDS-PAGE of the samples, proteins were transferred to a nitrocellulose membrane using iBlot (Invitrogen). Proteins were then probed with a polyclonal rabbit antibody (1:3000) raised against the PCSK9 N-terminal peptide (^153[…]^168 (SEQ ID NO: 5)), followed with HRP-conjugated donkey anti-rabbit antibody (1:5000, GE Healthcare) using iBind (Invitrogen). PCSK9 signals were detected by ECL (GE Healthcare) and visualized by autoradiography.
Proteins were then probed with a polyclonal rabbit antibody (1:3000) raised against the PCSK9 N-terminal peptide (^153[…]^168 (SEQ ID NO: 5)), followed with HRP-conjugated donkey anti-rabbit antibody (1:5000, GE Healthcare) using iBind (Invitrogen). PCSK9 signals were detected by ECL (GE Healthcare) and visualized by autoradiography.

[8] = TR-FRET counterscreen, Table 8E, additional compounds
[9] = TR-FRET, Table 8E, additional compounds, read-out: PCSK9/EGF(A) IC50
[10] = Table 11, average ±S.D. of three experiments, read-out: EGF(A) IC50
[11] = TR-FRET, Table 8E, additional compounds, read-out: PCSK9Δhelix/Ab20 IC50
[12] = Table 11, average ±S.D. of three experiments, read-out: Ab20 IC50

Structure (SMILES)	IC50 (His-EGF(A)-Fc; [8])	IC50 (PCSK9 [1])	IC50 (PCSK9 [2]; [9])	IC50 (PCSK9 [2]; [10])	IC50 (PCSK9Δhelix [4]; [11])	IC50 (PCSK9Δhelix [4]; [12])	competition with binding of phage-displayed Pep2-8 to PCSK9 (PCSK9 [6])	further results
CC[C@H](C)[C@H](NC(=O)[C@H](CCCCNC(=N)N)NC(=O)[C@@H](NC(=O)[C@H](CC(C)C)NC(=O)[C@H](CC(N)=O)NC(=O)[C@H](Cc1c[nH]c2ccccc12)NC(C)=O)C(C)C)C(=O)NCC(=O)N[C@@H](CC(C)C)C(=O)N[C@@H](CC(C)C)C(=O)N[C@@H](CCCNC(=N)N)C(N)=O [Compound 192, Ac-WNLV(homoR)IGLLR-NH2] (Ac-WNLV[hArg]IGLLR-NH2)	≥ 50 µM	> 50 µM	≥ 50 µM	> 50 µM	5.3 µM	5.55 ± 0.36 µM		Kd (PCSK9Δhelix [3]; Table 10, binding to PCSK9Δhelix): 1 µM; improvement of binding affinity by homo-arginine substitution (PCSK9Δhelix [3]; Table 10, versus Compound 53): 14 fold
CC(=O)N[C@H](C(=O)N[C@H](C(=O)N[C@@H](Cc1ccccc1)C(=O)N[C@H](C(=O)N[C@@H](CO)C(=O)N[C@@H](Cc1c[nH]c2ccccc12)C(=O)N[C@@H](CCC(=O)O)C(=O)N[C@@H](CCC(=O)O)C(=O)N[C@@H](Cc1ccc(O)cc1)C(=O)N[C@@H](CC(C)C)C(=O)N[C@@H](CC(=O)O)C(=O)N[C@@H](Cc1c[nH]c2ccccc12)C(=O)N[C@H](C(N)=O)C(C)C)[C@@H](C)O)C(C)C)[C@@H](C)O [Pep2-8, reference compound]							inhibited phage-displayed Pep2-8 binding	IC50 (His-EGF(A)-Fc; counterscreen, Example 7): > 50 µM; EC50 (PCSK9 [5]): 5 to 10 µM; effect on FXIa-mediated cleavage of the P′ helix of PCSK9-AAA [7]: largely prevented cleavage
CC[C@H](C)[C@@H]1NC(=O)[C@H](CCCNC(=N)N)NC(=O)[C@H](CCC(N)=O)NC(=O)[C@H](CC(C)C)NC(=O)[C@H](CC(N)=O)NC(=O)[C@H](Cc2c[nH]c3ccccc23)NC(=O)[C@@H]2CCCN2C(=O)[C@H](CC(C)C)NC(=O)[C@H](CCCNC(=N)N)NC(=O)[C@@H](NC(=O)CNC(=O)[C@@H](N)CO)CSSC[C@@H](C(N)=O)NC(=O)[C@@H]2CCCN2C(=O)[C@H](CC(C)C)NC(=O)CNC1=O [Compound K9gvpep4] (H-SGCRLPWNLQRIGLPC-NH2; disulfide 3-16)							did not compete	
CC[C@H](C)[C@@H]1NC(=O)[C@H](CCCNC(=N)N)NC(=O)[C@H](CCC(N)=O)NC(=O)[C@H](CC(C)C)NC(=O)[C@H](CC(N)=O)NC(=O)[C@H](Cc2c[nH]c3ccccc23)NC(=O)[C@@H]2CCCN2C(=O)[C@H]([C@@H](C)CC)NC(=O)[C@H](Cc2ccccc2)NC(=O)[C@@H](NC(=O)CNC(=O)[C@@H](N)CO)CSSC[C@@H](C(N)=O)NC(=O)[C@H](CC(C)C)NC(=O)[C@H](CC(C)C)NC(=O)CNC1=O [Compound K9gvpep1] (H-SGCFIPWNLQRIGLLC-NH2; disulfide 3-16)							did not compete	
CC[C@H](C)[C@H](NC(=O)[C@H](CCCCNC(=N)N)NC(=O)[C@@H](NC(=O)[C@H](CC(C)C)NC(=O)[C@H](CC(N)=O)NC(=O)[C@H](Cc1c[nH]c2ccccc12)NC(=O)CNC(=O)[C@@H]1CCCN1C(=O)[C@H](Cc1ccc(O)cc1)NC(=O)[C@H](CO)NC(=O)[C@H](CCC(=O)O)NC(C)=O)C(C)C)C(=O)NCC(=O)N[C@@H](CC(C)C)C(=O)N[C@@H](CC(C)C)C(=O)N[C@@H](CCCNC(=N)N)C(N)=O [Compound 231] (Ac-ESYPGWNLV[hArg]IGLLR-NH2)	≥ 50 µM	> 50 µM	1.6 µM	15.8 ± 0.1 µM	17 µM	1.49 ± 0.1 µM		
